Data: publication PMC10094418, “Butein Inhibits Cell Growth by Blocking the IL-6/IL-6Rα Interaction in Human Ovarian Cancer and by Regulation of the IL-6/STAT3/FoxO3a Pathway” (International Journal of Molecular Sciences, 2023)

Key:
SKOV3 cells [1] = assay: Matrigel invasion assay, SKOV3; assay type: cell-based, human; conditions: 48 h
Protocol: Matrigel invasion assays were performed using a BioCoat Matrigel Invasion Chamber (BD Bioscience, Bedford, MA, USA). A2780 and SKOV3 cells (50,000 cells) were placed inside the chamber in serum-free medium containing 500 μL of drugs, and 700 μL of medium containing serum were placed outside the chamber. After incubation for 48 h, the infiltrating cells were stained using the Differential Quick Stain Kit (Cat.no. 26096-50, Electron Microscopy Sciences, Hatfield, PA, USA). Cells were imaged with a Slide Scanner (Aperio CS2, Leica Microsystems, Wetzlar, Germany) and the number of invading cells was quantified using Image J.

SKOV3 cells [2] = assay: Clonogenic formation assay, SKOV3; assay type: cell-based, human; conditions: compared with control siltuximab-treated cells
Protocol: A2780 and SKOV3 cell lines were seeded at approximately 5000 cells/well in 24-well plates. Butein was added to the cell medium at various concentrations (5, 10, and 25 μM) together with control siltuximab (CTNO328; EUSA Pharma, Inc., Hemel Hempstead, UK) for 12 h. After 2 weeks, the colonies formed were fixed with fixer buffer, stained with crystal violet, and imaged with a ChemiDoc imaging system (Bio-Rad, Herles, CA, USA).

A2780 cells = assay: Annexin V apoptosis assay, A2780; assay type: cell-based, human; conditions: dose-dependent, p < 0.005
Protocol: A2780 and SKOV3 cell lines were treated with control (siltuximab 10 μM) and butein (5, 10, and 25 μM). After 6 h, the cells were fixed with 70% ethanol for cell cycle analysis and stained with propidium iodide (PI). Cell death was analyzed using the FITC Annexin V Apoptosis Detection kit with 7-AAD (Cat.no. 640922, BioLegend, San Diego, CA, USA). Cells were sorted using a FACS Canto II (BD Biosciences, Franklin Lakes, NJ, USA) and cell cycle and apoptosis were analyzed using BD FACS Diva software version 6. 2. Analysis (BD Biosciences, Franklin Lakes, NJ, USA) was performed in triplicate.

SKOV3 cells [3] = assay: Wound-healing assay, SKOV3; assay type: cell-based, human; conditions: 24 h and 48 h, concentration-dependent, vs control, 0.1% DMSO and siltuximab
Protocol: A2780 and SKOV3 cells were cultured to 90% confluence in 6-well plates. After changing to a serum-free medium, the cell monolayer was scraped to artificially form homogeneous wound with uniform thickness. The drug treatment for each well was carried out in the following manner: siltuximab at 50 μM; butein at 10, 25, and 50 μM. The cells were imaged at 0, 24, and 48 h.

IL-6Rα = molecular target: T1, IL-6Rα (Homo sapiens, UniProt P08887); assay: Surface plasmon resonance, immobilized IL-6Rα; assay type: binding; conditions: SPR, CM5 chip, steady-state KD
T1 construct: purchased PeproTech
T1 sequence (P08887 20-468): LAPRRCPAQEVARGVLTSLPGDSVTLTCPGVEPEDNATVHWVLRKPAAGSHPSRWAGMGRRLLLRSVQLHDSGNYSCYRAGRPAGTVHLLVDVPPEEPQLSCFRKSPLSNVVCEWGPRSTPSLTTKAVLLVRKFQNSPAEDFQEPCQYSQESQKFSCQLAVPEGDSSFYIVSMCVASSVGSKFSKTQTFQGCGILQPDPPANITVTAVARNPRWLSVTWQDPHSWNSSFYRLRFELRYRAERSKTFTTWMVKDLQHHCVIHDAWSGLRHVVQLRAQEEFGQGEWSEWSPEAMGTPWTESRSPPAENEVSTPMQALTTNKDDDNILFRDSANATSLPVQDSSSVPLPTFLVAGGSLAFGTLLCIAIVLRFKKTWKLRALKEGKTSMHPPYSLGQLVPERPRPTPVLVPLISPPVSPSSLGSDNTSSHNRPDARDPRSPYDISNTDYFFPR
Protocol: The surface plasmon resonance (SPR) assay was measured using the BIAcore T200 model (GE Healthcare, Chicago, IL, USA) with HBS-EP buffer (1×HBS-EP, GE Healthcare, Chicago, IL, USA) containing 5% dimethyl sulfoxide (DMSO; Sigma-Aldrich, St. Louis, MO, USA). The pH scouting for IL-6 (PeproTech, Rocky Hill, NJ, USA), IL-6Rα (PeproTech, Rocky Hill, NJ, USA), and gp130 (Sino Biological, Beijing, China, or ANRT, Daejeon, Korea) immobilization was performed in 10 mM acetate buffer at pH 4.5. IL-6, IL-6Rα, and gp130 were immobilized on a CM5 chip at 750, 1200, and 2000 response units (RU). Butein was injected into the IL-6, IL-6Rα and gp130-immobilized flow cell at concentrations of 10, 20, 30, 40, 50, 60, 70, 80, 90, and 100 μM with a 25 μL/min flow rate for 150 s and allowed to dissociate for 300 s. Steady-state KD was determined via the T-200 BIAevaluation software (GE Healthcare, Chicago, IL, USA).

[4] = tested on: STAT3 phosphorylation in SKOV3 cells; assay: Western blotting of STAT3 phosphorylation, SKOV3; assay type: cell-based, human; conditions: relative to IL-6 treated cells
Protocol: After each drug treatment of the cells, the cells were dissolved in 100 μL of radioimmunoprecipitation assay (RIPA) buffer (Thermo Fisher Scientific Inc., Waltham, MA, USA) and centrifuged to separate the supernatant containing protein. Isolated protein concentrations were measured using the Pierce BCA Protein Assay Kit (Thermo Fisher Scientific Inc., Waltham, MA, USA). Aliquots of proteins quantified at […] were boiled at 100 °C in 5× sample buffer, separated on a 12% SDS-polyacrylamide gel and electrophoresed onto polyvinylidene difluoride (PDVF) membranes (Millipore, Billerica, MA, USA). The PDVF membranes were blocked for 1 h at 25 °C with 5% BSA in 1× tris buffered saline containing 0.05% Tween20 (TBST) (Sigma-Aldrich, St. Louis, MO, USA). The membrane was incubated in the primary antibody at 4 °C overnight. PDVF membranes were washed with 1× TBST and incubated with AffiniPure goat anti-rabbit IgG secondary antibody (Jackson Immunoresearch, West Grove, PA, USA) for 1 h at room temperature. After washing again with TBST buffer, enhanced signals were detected using the SuperSignal™ West Femto Maximum Sensitivity Substrate kit (cat.no. 34094, Thermo Scientific, Rockford, IL, USA). The blot was imaged using the ChemiDoc imaging system (Bio-Rad, Herles, CA, USA), and protein expression was quantified with the ImageJ software (v1.8.0).

Kd (IL-6Rα): 435 µM
Compound: O=C(/C=C/c1ccc(O)c(O)c1)c1ccc(O)cc1O [butein]
Cell infiltration (invasion), SKOV3 (SKOV3 cells [1]): similarly affected | Clonogenicity, SKOV3 (SKOV3 cells [2]): significantly inhibited | Total apoptosis, A2780 (A2780 cells): significantly increase | Cell migration, SKOV3 (SKOV3 cells [3]): reduced | Phosphorylation of STAT3, SKOV3 [4]: inhibited in a concentration-dependent manner
